Where two headings read alike, the source gives them in different places.
Biological target: T1, PD-1/PD-L1 interaction (Homo sapiens, UniProt Q9NZQ7)
T1 construct: Tag1 or Tag2 (undisclosed kit tag); purchased Cisbio
Assay: Cisbio PD-1/PD-L1 Homogeneous Time-Resolved Fluorescence (HTRF) binding assay
Conditions: for IC50: read-out: Reported IC50
Source text: The ability of compounds of the disclosure to inhibit the PD-1/PD-L1 interaction was investigated using a Cisbio PD-1/PD-L1 Homogeneous Time-Resolved Fluorescence (HTRF) binding assay (https://ca.cisbio.net/human-pd1-pd-l1-biochemical-binding-assay-44666).
With the assay, the interaction between PD-L1 and PD-1 is detected by using anti-Tag1 labeled with Europium (HTRF donor) and anti-Tag2 labeled with XL665 (HTRF acceptor). When the donor and acceptor antibodies are brought into close proximity due to PD-L1 and PD-1 binding, excitation of the donor antibody triggers fluorescence resonance energy transfer (FRET) towards the acceptor antibody, which in turn emits specifically at 665 nm. This specific signal is directly proportional to the extent of PD-1/PD-L1 interaction. Thus, a compound blocking the PD-1/PD-L1 interaction causes a reduction in the HTRF signal.
The assay was carried out in accordance with the product insert.

[1] = Table 10, * n = 7, median, P1 and P2 are different isomers
[2] = Table 10, same result in μM, P1 and P2 are different isomers

T1 sequence (Q9NZQ7 19-238 limits assumed): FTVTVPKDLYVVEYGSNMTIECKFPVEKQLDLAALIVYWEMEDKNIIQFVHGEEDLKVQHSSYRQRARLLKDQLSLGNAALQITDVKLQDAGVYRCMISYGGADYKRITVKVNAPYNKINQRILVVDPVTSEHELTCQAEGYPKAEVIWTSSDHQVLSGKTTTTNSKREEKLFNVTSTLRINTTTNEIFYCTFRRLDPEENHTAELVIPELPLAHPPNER

Row | IC50 (Table 9) [µM] | IC50 (Table 9, same result in μM) [µM] | SMILES | also measured
1 | 0.051 | 0.051 | COc1cc(C(=O)N2CCN(Cc3csc(NC[C@@H]4CCCN4Cc4ccc(Br)cc4)n3)CC2)cc(OC)c1OC [Compound 2678-10] | IC50 (Table 8, Run: Pure): 0.33 µM; KD/IC50 (Table 11, compound of the disclosure): 0.33 µM
2 | 13 | 13 | COc1cc(C(=O)N2CCN(Cc3csc(NC[C@H]4CCCN4Cc4ccc(Br)cc4)n3)CC2)cc(OC)c1OC [Compound A706] | –
3 | – | – | COc1cc(C(=O)N2CCN(Cc3nsc(NC[C@@H]4CCCN4Cc4ccc(C(F)(F)F)cc4)n3)CC2)cc(OC)c1OC [Compound B317] | IC50 [1]: 0.018 µM; IC50 [2]: 0.018 µM
4 | – | – | COc1cc(C(=O)N2CCN(Cc3cc(NC[C@@H]4CCCN4Cc4ccc(Br)cc4)sn3)CC2)cc(OC)c1OC [Compound B708] | IC50 [1]: 0.028 µM; IC50 [2]: 0.028 µM
5 | 1.6 | 1.6 | COc1cc(C(=O)N2C[C@@H](C)N(Cc3csc(NC[C@@H]4CCCN4Cc4ccc(Br)cc4)n3)C[C@H]2C)cc(OC)c1OC [Compound A608] | –
6 | – | – | COc1cc(C(=O)N2CCN(Cc3nsc(NC[C@@H]4CCCN4Cc4ccc(Br)c(F)c4)n3)CC2)cc(OC)c1OC [Compound B319] | IC50 [1]: 0.015 µM; IC50 [2]: 0.015 µM
7 | 0.247 | 0.25 | O=C(c1ccc(=O)[nH]c1)N1CCN(Cc2csc(NC[C@@H]3CCCN3Cc3ccc(Br)cc3)n2)CC1 [Compound A405] | –
8 | 0.53 | 0.53 | COc1cccc(C(=O)N2CCN(Cc3csc(NC[C@@H]4CCCN4Cc4ccc(Br)cc4)n3)CC2)c1 [Compound A403] | –
9 | > 50 | > 50 | COc1cc(CN2CCN(Cc3csc(NCC4CCCN4C(=O)c4ccc(Br)cc4)n3)CC2)cc(OC)c1OC (stereo not shown) [Compound A605] | –
10 | 10.4 | 10 | COc1cc(C(=O)N2CCN(Cc3csc(NC[C@@H]4CCCN4Cc4ccncc4)n3)CC2)cc(OC)c1OC [Compound A309] | –
11 | – | – | COc1cc(C(=O)N2CCN(Cc3nsc(NC[C@@H]4CCCN4Cc4ccc(Br)cc4)n3)CC2)cc(OC)c1OC [Compound A702] | IC50 [1]: 0.015 µM; IC50 [2]: 0.015 µM
12 | – | – | CC(Oc1ccccc1)C(=O)N1CCN(Cc2csc(NC[C@@H]3CCCN3Cc3ccc(Br)cc3)n2)CC1 (stereo partly shown) [Compound 2678-58] | IC50 (Table 8, Run: Pure): 0.8 µM
13 | 0.69 | 0.69 | COc1cc(C(=O)N2CCN(Cc3csc(NC[C@@H]4CCCN4Cc4ccc(S(C)(=O)=O)cc4)n3)CC2)cc(OC)c1OC [Compound A308] | –
14 | 0.88 | 0.88 | O=C(c1ccc2c(c1)OCO2)N1CCN(Cc2csc(NC[C@@H]3CCCN3Cc3ccc(Br)cc3)n2)CC1 [Compound A404] | –
15 | 26 | 26 | COc1cc(C(=O)N2CCN(Cc3csc(NC[C@@H]4CCCN4Cc4cnc(C)s4)n3)CC2)cc(OC)c1OC [Compound A310] | –
16 | – | – | Cc1ccc(C(=O)N2CCN(Cc3nsc(NC[C@@H]4CCCN4Cc4ccc(Br)cc4)n3)CC2)cc1 [Compound B409] | IC50 [1]: 0.65 µM; IC50 [2]: 0.65 µM
17 | – | – | COc1cc(C(=O)N2CCN(Cc3csc(NCC4CC(OCc5ccccc5)CN4Cc4ccc(Br)cc4)n3)CC2)cc(OC)c1OC (stereo not shown) [Compound 2678-80] | IC50 (Table 8, Run: Pure): 0.5 µM
18 | > 50 | > 50 | Cc1ccc(C(=O)N2CCN(Cc3csc(NC[C@@H]4CCCN4Cc4ccc(Br)cc4)n3)CC2)cc1 [Compound B408] | –
19 | 0.096 | 0.096 | COc1cc(C(=O)N2C[C@H](C)N(Cc3csc(NC[C@@H]4CCCN4Cc4ccc(Br)cc4)n3)C[C@@H]2C)cc(OC)c1OC [Compound A607] | –
20 | > 5 | > 5 | Cn1cc(C(=O)N2CCN(Cc3csc(NC[C@@H]4CCCN4Cc4ccc(Br)cc4)n3)CC2)ccc1=O [Compound B414] | –
21 | > 50 | > 50 | COc1cc(C(=O)N2CCN(Cc3csc(NC[C@@H]4CCCN4Cc4ccncn4)n3)CC2)cc(OC)c1OC [Compound A312] | –
22 | – | – | O=C(CCc1nc2ccccc2[nH]1)N1CCN(Cc2csc(NC[C@@H]3CCCN3Cc3ccc(Br)cc3)n2)CC1 [Compound 2678-2] | IC50 (Table 8, Run: Pure): 1.9 µM
23 | 0.205 | 0.21 | COc1cc(C(=O)N2CCN(Cc3csc(NC[C@@H]4CCCN4Cc4ccc(Cl)cc4)n3)CC2)cc(OC)c1OC [Compound B313] | –
24 | – | – | O=C(CCc1nc2ccccc2[nH]1)N1CCN(Cc2csc(NC[C@@H]3CCCN3Cc3ccc(F)cc3)n2)CC1 [Compound 2678-3] | IC50 (Table 8, Run: Pure): 7 µM
25 | – | – | O=C(c1ccccc1)N1CCN(Cc2nsc(NC[C@@H]3CCCN3Cc3ccc(Br)cc3)n2)CC1 [Compound B412] | IC50 [1]: 4.4 µM; IC50 [2]: 4.4 µM
26 | 2 | 2 | O=C(C1CC1)N1CCN(Cc2csc(NC[C@@H]3CCCN3Cc3ccc(Br)cc3)n2)CC1 [Compound A504] | –

Row | IC50 (Table 9) [µM] | IC50 (Table 9, same result in μM) [µM] | SMILES | also measured
27 | – | – | COc1cc(C(=O)N2CCN(Cc3nsc(NC[C@@H]4CCCN4Cc4ccc(Cl)cc4)n3)CC2)cc(OC)c1OC [Compound B314] | IC50 [1]: 0.018 µM; IC50 [2]: 0.018 µM
28 | 0.98 | 0.98 | Cn1cnc2cc(C(=O)N3CCN(Cc4csc(NCC5CCCN5Cc5ccc(Br)cc5)n4)CC3)ccc21 (stereo not shown) [Compound A406] | –
29 | > 5 | > 5 | O=C(c1ccc(Cl)cc1)N1CCN(Cc2csc(NCC3CCCN3Cc3ccc(Br)cc3)n2)CC1 (stereo not shown) [Compound B410] | –
30 | – | – | COc1cc(C(=O)N2CCN(Cc3nsc(NC[C@@H]4C[C@@H](O)CN4Cc4ccc(Br)cc4)n3)CC2)cc(OC)c1OC [Compound B802] | IC50 [1]: 0.012 µM; IC50 [2]: 0.012 µM
31 | 9.1 | 9.1 | COc1cc(C(=O)N2CCN(Cc3csc(NC[C@@H]4CCCN4Cc4ccc(C5CC5)cc4)n3)CC2)cc(OC)c1OC [Compound A303] | –
32 | 0.109 | 0.11 | COc1cc(C(=O)C2CCN(Cc3csc(NC[C@@H]4CCCN4Cc4ccc(Br)cc4)n3)CC2)cc(OC)c1OC [Compound A703] | –
33 | 0.089 | 0.089 | COc1cc(C(=O)N2CCN(Cc3csc(NC[C@@H]4C[C@@H](O)CN4Cc4ccc(Br)cc4)n3)CC2)cc(OC)c1OC [Compound A704] | –
34 | 0.159 | 0.16 | COc1cc(CN2CCN(Cc3csc(NCC4CCCN4C(C)c4ccc(Br)cc4)n3)CC2)cc(OC)c1OC (stereo not shown) [Compound A601] | –
35 | > 50 | > 50 | COc1cc(CN2CCN(Cc3csc(NCC4CCCN4Cc4ccccc4)n3)CC2)cc(OC)c1OC (stereo not shown) [Compound A505] | –
36 | 0.14 | 0.14 | COc1cc(C(=O)N2CCN(Cc3csc(NC[C@@H]4CCCN4Cc4ccc(C(F)(F)F)cc4)n3)CC2)cc(OC)c1OC [Compound A302] | –
37 | 0.171 | 0.17 | COc1cc(C(=O)N2CCN(Cc3csc(NC[C@@H]4C[C@@H](OC)CN4Cc4ccc(Br)cc4)n3)CC2)cc(OC)c1OC [Compound A705] | –
38 | 3.5 | 3.5 | COc1cc(C(=O)N2CCN(Cc3csc(NC[C@@H]4CCCN4Cc4ccc(C)cc4)n3)CC2)cc(OC)c1OC [Compound A304] | –
39 | 0.49 | 0.49 | Cn1ncc2cc(C(=O)N3CCN(Cc4csc(NC[C@@H]5CCCN5Cc5ccc(Br)cc5)n4)CC3)ccc21 [Compound A407] | –
40 | 0.324 | 0.32 | COc1cc(CN2CCN(Cc3csc(NCC4CCCN4C(C)c4ccc(Br)cc4)n3)CC2)cc(OC)c1OC (stereo not shown) [Compound A602] | –
41 | 0.092 | 0.092 | COc1cc(C(=O)N2CCN(Cc3csc(NC[C@@H]4CCCN4Cc4ccc(Br)c(F)c4)n3)CC2)cc(OC)c1OC [Compound B318] | –
42 | – | – | O=C(CCc1nc2ccccc2[nH]1)N1CCN(Cc2csc(NCC3CC(OCc4ccccc4)CN3Cc3ccc(Br)cc3)n2)CC1 (stereo not shown) [Compound 2678-78] | IC50 (Table 8, Run: Pure): 1.6 µM
43 | – | – | O=C(c1ccc(=O)[nH]c1)N1CCN(Cc2nsc(NC[C@@H]3CCCN3Cc3ccc(Br)cc3)n2)CC1 [Compound B413] | IC50 [1]: 0.44 µM; IC50 [2]: 0.44 µM
44 | – | – | COc1cc(C(=O)N2CCN([C@H](C)c3nsc(NC[C@@H]4CCCN4Cc4ccc(Br)cc4)n3)CC2)cc(OC)c1OC [Compound B805] | IC50 [1]: 0.014 µM; IC50 [2]: 0.014 µM
45 | > 50 | > 50 | COc1cc(CN2CCN(Cc3csc(NCC4CCCN4CC4CC4)n3)CC2)cc(OC)c1OC (stereo not shown) [Compound A506] | –
46 | – | – | O=C(c1ccco1)N1CCN(Cc2csc(NC[C@@H]3CCCN3CCCc3nc4ccccc4[nH]3)n2)CC1 [Compound 2678-72] | IC50 (Table 8, Run: Pure (70% Pure)): 11 µM
47 | – | – | COc1cc(C(=O)N2CCN(Cc3nsc(NC[C@@H]4C[C@@H](O)CN4[C@@H](C)c4ccc(Br)cc4)n3)CC2)cc(OC)c1OC [Compound B910] | IC50 [1]: 0.044 µM; IC50 [2]: 0.044 µM
48 | 2.6 | 0.26 | CC(=O)N1CCN(Cc2csc(NC[C@@H]3CCCN3Cc3ccc(Br)cc3)n2)CC1 [Compound A503] | –
49 | 40 | 40 | COc1cc(C(=O)N2CCN(Cc3csc(NC[C@@H]4CCCN4Cc4ccccc4Br)n3)CC2)cc(OC)c1OC [Compound A306] | –
50 | – | – | COc1cc(C(=O)N2C[C@H](C)N(Cc3nsc(NC[C@@H]4CCCN4Cc4ccc(Br)cc4)n3)C[C@@H]2C)cc(OC)c1OC [Compound B804] | IC50 [1]: 0.021 µM; IC50 [2]: 0.021 µM
51 | > 50 | > 50 | COc1cc(C(=O)N2CCN(Cc3csc(N(C)C[C@@H]4CCCN4Cc4ccc(Br)cc4)n3)CC2)cc(OC)c1OC [Compound A606] | –
52 | 0.74 | 0.74 | COc1cc(CN2CCN(Cc3csc(NCC4CCCN4Cc4ccc(Br)cc4)n3)CC2)cc(OC)c1OC (stereo not shown) [Compound A501] | –

From patent US20230219942A1, “COMPOUNDS COMPRISING A THREE RING CORE AS PD-1/PD-L1 BLOCKERS” (RELIVE THERAPEUTICS INC., priority 2020, published 2023)
